Consider two molecules from patent US4613505A, “Ester of flurbiprofen and emulsion containing the same” (The Green Cross Corporation, priority 1983, dated 1986).

Structures are written as SMILES. Read-outs that look alike come from different tables or passages of the source.

The data set can be described thus: Hydrolysis in human articular synovia. To be noted: for metabolised at 1 h: human, articular synovia, 60 minutes at 37° C., read-out: Hydrolysis rate. The class given is in vitro ADME. As for the experimental part:
Into 1 ml of articular synovia of a patient with rheumatoid or osteoarthritis, was added 10 ml of an acetone solution of ethyl 2-(2-fluoro-4-biphenylyl)propionate(ethyl flurbiprofen ester: compound 1) or acetoxymethyl 2-(2-fluoro-4-biphenylyl)propionate(acetoxymethyl flurbiprofen ester; compound 2) (each being contained in an equimolar amount to 50 ng of flurbiprofen), respectively, and the mixture was incubated for 60 minutes at 37° C. The concentration of flurbiprofen formed by hydrolysis was then determined by gas chromatography.

For `CCOC(=O)C(C)c1ccc(-c2ccccc2)c(F)c1` (stereo not drawn) [Compound 1, ethyl 2-(2-fluoro-4-biphenylyl)propionate], the “hydrolysis in human articular synovia (in words)” value is reported as “substantially not hydrolyzed”. For the same molecule, the metabolised at 1 h (patient five (Rheumatoid)) is 0%. Besides, the metabolised at 1 h (patient four (Rheumatoid)) stood at 0%. Moreover, for the setting “patient one (Rheumatoid)”, the metabolised at 1 h came out at 25.8%. The metabolised at 1 h (patient three (Osteoarthritis)) turned out to be 0%. Moreover, the metabolised at 1 h (patient two (Unknown)) came out at 2%.

Turning to `CC(=O)OCOC(=O)C(C)c1ccc(-c2ccccc2)c(F)c1` (stereo not drawn) [Compound 2, acetoxymethyl 2-(2-fluoro-4-biphenylyl)propionate], the “hydrolysis in human articular synovia (in words)” value is “effectively hydrolyzed”. Besides, the metabolised at 1 h (patient five (Rheumatoid)) was 65.7%. Further, the metabolised at 1 h (patient four (Rheumatoid)) was 64.1%. Where the note is “patient one (Rheumatoid)”, the metabolised at 1 h came to 91.3%. The metabolised at 1 h (patient three (Osteoarthritis)) worked out at 64.7%. Further, the metabolised at 1 h (patient two (Unknown)) amounted to 84.4%.
